Entries after “also recorded” stand apart in the source; their conditions may differ.
Legend:
[1] = tested on: human lung fibroblasts (HFL-1); experiment: Gene expression profiling (microarray, GSEA) of treated HFL-1 fibroblast cultures; type: cell-based
Protocol: GSEA was used to explore connections to other datasets. Genes in this dataset were ranked by the t-statistic of the Lm term in the linear model represented by equation (2) shown above. […] For those datasets where raw data was available, the Entrez gene chip definition file (CDF) was used to obtain RMA normalized expression values. Genes from these datasets were ranked by t-statistic. For dichotomous variables, the t-statistic was calculated from a comparison of expression levels observed in the two groups (e.g. cases and controls). For continuous variables, the t-statistic was from a linear model of expression as a function of the continuous variable (e.g. FEV1). Datasets that measured the effect of TGFβ ligands on gene expression in various cell types included Chambers et al., (The American journal of pathology 2003162:533-46) Verrecchia et al., (The Journal of biological chemistry 2001 276:17058-62), GSE749712, GSE545010, GSE665314, GSE1171013, and GSE172415. Lists of genes that change with TGFβ exposure were taken from the publication associated with the microarray data. If lists of at least 25 genes could not be obtained from the literature, the raw data was used from GEO and normalized as described above. The 200 genes with the highest fold change and the 200 genes with the lowest fold change were used as gene sets and compared to a list of all genes from this dataset ranked by their correlation to Lm.
(§1) Normal human diploid lung fibroblasts (HFL-1) were obtained from the American Type Culture Collection (Manassas, Va.) and used between 3-5 consequent passages after thawing of frozen cells. HFL-1 cells were placed in 6-well culture plates (BD Biosciences, Mississauga, ON) at a density of 1×10^5 cells per well in complete cell culture medium (CCM, DMEM supplemented with 10% FBS, 2 mM L-glutamine and 1% of antibiotic solution; Invitrogen, Burlington, ON). Cells were cultured at 37° C. and 5% CO2 in CCM before they reached 80% confluence. Cells were quiesced in CCM with 1% FBS overnight. […] Cells exposed to the CCM with added DMSO served as a vehicle control. Experiments were repeated 3 times using HFL-1 cells during 3 consequent cell culture passages. Total RNA was isolated from HFL-1 monolayers using RNeasy Plus Mini-Kit (Qiagen, Valencia, Calif.) as per manufacturer's instructions. Quantity and quality of the isolated RNA was determined using Agilent 2100 Bioanalyzer (Agilent Technologies, Mississauga, ON). Isolated RNA was processed and hybridized onto the Human Gene 1.0 ST array (Affymetrix Inc., Santa Clara, Calif.) according to the manufacturer's protocol. Transcript-level gene expression estimates were generated using RMA with the Entrez gene CDF version v11. […] Gene expression profiles were ranked for each treatment by t-statistic.

β1-integrin = experiment: Immunoblotting for β1-integrin in HFL-1 cells; type: cell-based, human; conditions: HFL-1, 48 hrs, FIG. 8A
Protocol: as §1
Production of β1-integrin by HFL-1 cells was assessed by immunoblotting as previously described (Pechkovsky, D. V. et al. The Journal of biological chemistry 2008 283:12898-908). Briefly, total cell protein was extracted from cultured HFL-1 using Cell Protein Extraction Buffer (Biosource, Camarillo, Calif.), quantified by DC Protein Assay (Bio-Rad, Hercules, Calif.), resolved by SDS-PAGE, and transferred to nitrocellulose membranes. Membranes were probed with mouse anti-human β1-integrin antibody (clone 419127, R&D Systems, Minneapolis, Minn.) and anti-β-tubulin antibody (Millipore, Billerica, Mass.) as a loading control. […] Density of the bands was quantified using Odyssey software 2.1 (LI-COR Biosciences). […]

Substance	GSEA: genes that increase after treatment among genes whose expression decreases with increasing emphysema ([1]; GHK 0.1 nM or 10 nM (either concentration), HFL-1, FIG. 7A)	GSEA: 200 genes most induced by GHK at 1 μM in CMap cancer cell lines among genes that increase with treatment in HFL-1 ([1]; GHK 0.1 nM, 48 hrs, HFL-1, FIG. 7B)	ITGB1 expression profile ([1]; GHK 0.1 nM, HFL-1, p=0.004)	GSEA: genes whose expression is decreased with increasing emphysema severity among genes induced by treatment ([1]; GHK 10 nM, 48 hrs, HFL-1, FIG. 7C)	GSEA: genes whose expression is altered by GHK treatment among genes that change with TGFβ1 treatment ([1]; GHK at either concentration (0.1 nM, 10 nM), HFL-1, FIGS. 7B-7D)	β1-integrin (ITGB1) protein levels vs vehicle (DMSO) treated controls (β1-integrin; GHK 0.1 or 10 nM, p<0.01)	GSEA: genes most induced by treatment among genes that decrease in expression with increasing regional emphysema severity ([1]; TGFβ1 10 ng/ml, human lung fibroblasts, FDR<0.05, FIG. 7A)	β1-integrin (ITGB1) protein levels vs vehicle (DMSO) treated controls (β1-integrin; TGFβ 10 ng/mL, p<0.05)	β1-integrin (ITGB1) protein levels vs vehicle (DMSO) treated controls (β1-integrin; TGFβ 10 ng/mL, p<0.05, listed as TGFβ)
Glycine-Histidine-Lysine [GHK]	enriched	enriched	significantly upregulated	enriched	enriched	significantly induced; also recorded: increase			
TGFβ1: recombinant human TGFβ1 (10 ng/ml, PeproTech)							enriched	significantly induced	increase

Reference: patent US10233498B2, “Therapeutic agent for emphysema and COPD” (TRUSTEES OF BOSTON UNIVERSITY, priority 2011, dated 2019)
